# Source: PMC3369547, “Antimicrobial Constituents of Artemisia afra Jacq. ex Willd. against Periodontal Pathogens” (Evidence-based Complementary and Alternative Medicine : eCAM, 2012)
# Like-named read-outs stand apart in the source and are kept apart here. *1 amine or outer side, *2 acyl side, *3 side chain or, on linkers, in order; H or OH if unused. Where a SMILES comes first, the peptide text is derived from it. Bridges are numbered along the chain shown (N, C = ends). Roman numbers before positions name the chains, in order. [ ]: non-standard residue; d: D form. Actinocin(9to1) = Cc1c2oc3c(C)ccc(C(=O)[*:1])c3nc-2c(C(=O)[*:2])c(N)c1=O; NMeV = CN[C@H](C(=O)O)C(C)C; Sar = CNCC(=O)O
# Columns and labels:
# [1] = XTT cell proliferation (cytotoxicity) assay on McCoy cells; format: cell-based; details: mouse
# Description: Extract and compounds were dissolved in dimethyl sulfoxide (DMSO) and stored at −20°C. All tested compounds were diluted to the final concentration with RPMI 1640 and control cultures were diluted with 0.1% DMSO.
# McCoy cells were maintained in monolayer culture at 37°C and 5% CO2 with 10% […] Medium, 10 μg/mL of penicillin, 10 μg/mL, streptomycin, 40 μg/mL gentamycin, and 0.25 μg/mL fungizone.
# A microtiter plate with McCoy cells was used for testing all the ethanol extracts for cytotoxicity following the method of [26]. Cytotoxicity was measured by the XTT (sodium 3′-[1-(phenyl amino-carbonyl)-3,4-tetrazolium]-bis-[4-methoxy-6-nitro] benzene sulfonic acid hydrate) method using a cell proliferation kit II (Roche Diagnostics GmbH). Hundred microlitres of McCoy cells (1 × 10^5 mL) was seeded onto a microtiter plate and incubated for 24 h to allow the cells to attach to the bottom of the plate. Dilution series were made of the extract and compound and the various concentrations (400 to 3.1 μg/mL) were added to the microtitre plate and incubated for 48 h. The XTT reagents were added to a final concentration of 0.3 mg/mL and the cells were incubated for 1-2 hours. The positive drug control (Zearalenone) at concentrations range of (10 μg/mL to 0.6 μg/mL) was included in the assay. After incubation the absorbance of the colour was spectrophotometrically quantified using an ELISA plate reader, which measured the optical density at 490 nm with a reference wavelength of 690 nm. The assay was carried out in triplicate.
# [2] = system: Actinomyces naeslundii (ATCC 19039); experiment: Microdilution MIC/MMC (INT) against Actinomyces naeslundii; format: cell-based; details: Actinomyces naeslundii, ATCC19039, A.n, Gram +ve, table title says mg/mL; for MBC: MMC in title
# Description: (§1) The microorganisms used in this study include Actinomyces naeslundii (ATCC 19039), Actinomyces israelii (ATCC 10049), Aggregatibacter actinomycetemcomitans (ATCC 33384), Candida albicans (Med I), Porphyromonas gingivalis (ATCC 33277), Prevotella intermedia (ATCC 25611), and Streptococcus mutans (ATCC 25175). Bacteria were grown in the Casein-peptone Soy Agar medium (CASO) (Merck SA (Pty) Ltd.) under anaerobic conditions in a jar with anaerocult A (Merck SA (Pty) Ltd.), at 37°C for 48 hours. Sabouraud Dextrose Agar medium (SDA) (Merck SA (Pty) Ltd.) was used for the culturing of Candida albicans and incubated at 37°C for 24 hours under aerobic conditions. Subculturing was done once weekly.
# (§2) The microdilution technique using 96-well microplates was used to obtain the MIC and MMC values of the crude extract against microorganisms under study. The extract was serially diluted in the 96-well plate with 48 hours old microorganisms (5 × 10^6 CFU/mL) grown at 37°C and the final concentration of extract and positive control (CHX) ranged from 25.0 mg/mL to 0.8 mg/mL. Microbial growth was indicated by adding 40 μL of (0.2 mg/mL) p-iodonitrotetrazolium violet (INT) (Sigma-Aldrich, South Africa) to microplate wells and incubated at 37°C for 48 hours. MIC was defined as the lowest concentration that inhibited the colour change of INT. […] These suspensions were reincubated at 37°C for 48 hours. The MMC was determined as the lowest concentration of extract which inhibited 100% growth of microorganisms.
# [3] = system: Prevotella intermedia (ATCC 25611); experiment: Microdilution MIC/MMC (INT) against Prevotella intermedia; format: cell-based; details: Prevotella intermedia, ATCC25611, P.i, Gram –ve, table title says mg/mL; for MBC: MMC in title
# Description: as §1, §2
# [4] = system: Porphyromonas gingivalis (ATCC 33277); experiment: Microdilution MIC/MMC (INT) against Porphyromonas gingivalis; format: cell-based; details: Porphyromonas gingivalis, ATCC33277, P.g, Gram –ve, table title says mg/mL; for MBC: MMC in title
# Description: as §1, §2
# [5] = system: Aggregatibacter actinomycetemcomitans (ATCC 33384); experiment: Microdilution MIC/MMC (INT) against Aggregatibacter actinomycetemcomitans; format: cell-based; details: Aggregatibacter actinomycetemcomitans, ATCC33384, A.a, Gram –ve, table title says mg/mL; for MBC: MMC in title
# Description: as §1, §2
# [6] = system: Candida albicans (Med I); experiment: Microdilution MIC/MMC (INT) against Candida albicans; format: cell-based; details: C.a, Yeast, table title says mg/mL; for MBC: MMC in title
# Description: as §1, §2
# [7] = system: Actinomyces israelii (ATCC 10049); experiment: Microdilution MIC/MMC (INT) against Actinomyces israelii; format: cell-based; details: Actinomyces israelii, ATCC10049, A.i, Gram +ve, table title says mg/mL; for MBC: MMC in title
# Description: as §1, §2
# [8] = system: oral microorganisms; experiment: Microdilution MIC/MMC, summary over tested microbial species; format: cell-based; details: against A. israelii and A. naeslundii; read-out: lowest MIC and MMC value
# Description: as §1, §2
# [9] = DPPH free radical scavenging assay; format: biochemical; details: 37°C, 30 min, 517 nm
# Description: The free radical scavenging activity was measured using 1, 1 diphenyl-2-picryl-hydraxyl (DPPH) assay with slight modifications. The ethanol extract of A. afra and Vitamin C (positive control) 1000 μg/mL (20 μL) was added in the first three wells of a 96-well plate containing 200 μL of distilled water to make up final concentration of 100 μg/mL and the remaining wells were filled with 110 μL of distilled water. The first raws containing the extract/compounds were serially diluted to wells which contain 110 μL of distilled water, and later, 90 μL of methanolic solution of DPPH ([…]) was added to all the wells. The final concentrations of the extract/compounds ranged from 100 to 0.8 μg/mL. The plates were incubated at 37°C for 30 min and the absorbance was measured at 517 nm using the ELISA plate reader. The percent radical scavenging activity by A. afra was determined by comparison with ethanol (blank). The inhibition ratio was calculated as follows: % DPPH radical-scavenging = (AC-AS)/AC × 100, where AC is absorbance of the control solution (containing only DPPH solution), and AS is the absorbance of the sample in DPPH solution. The percentage of DPPH radical-scavenging was plotted against the plant extract/compounds concentrations (μg/mL) to determine the concentration of extract/compound required to scavenge DPPH by 50% (EC50).
# [10] = system: lung cancer (A549) cell; design: method as in PMID 15246561; details: A549 cells; read-out: IC50 cell proliferation; cited from earlier work
MIC [2] [µg/mL],MIC [4] [µg/mL],MIC [3] [µg/mL],MIC [5] [µg/mL],MIC [6] [µg/mL],MIC [7] [µg/mL],Structure (SMILES),MBC [2] [µg/mL],MBC ([3]; read-out: MBC) [µg/mL],MBC [4] [µg/mL],MBC [5] [µg/mL],MBC [6] [µg/mL],MBC [7] [µg/mL],also measured
,,,,,,"Cc1c2oc3c(C)ccc(C(=O)N[C@@H]4C(=O)N[C@H](C(C)C)C(=O)N5CCC[C@H]5C(=O)N(C)CC(=O)N(C)[C@@H](C(C)C)C(=O)O[C@@H]4C)c3nc-2c(C(=O)N[C@@H]2C(=O)N[C@H](C(C)C)C(=O)N3CCC[C@H]3C(=O)N(C)CC(=O)N(C)[C@@H](C(C)C)C(=O)O[C@@H]2C)c(N)c1=O [Actinomycin-D, reference compound] (I: T[dV]P[Sar][NMeV] / II: T[dV]P[Sar][NMeV]; ester I:1-I:C, II:1-II:C; linker I:N-II:N via Actinocin(9to1))",,,,,,,"IC50 at 48 h ([1]; McCoy cells, XTT, 48 h, read-out: IC50 (cytotoxicity)): 0.00336 µg/mL"
1600,1600,,,,,"[H]/N=C(\N/C(=N/[H])NCCCCCCNC(=N)NC(=N)Nc1ccc(Cl)cc1)Nc1ccc(Cl)cc1 [Chlorhexidine, chlorhexidine, reference compound]",1600,6.3,,,,,MIC ([3]; read-out: MIC): 6.3 µg/mL; MBC ([4]; read-out: MBC): 1.6 µg/mL; MBC ([5]; read-out: MBC): 1.6 µg/mL; MIC ([5]; read-out: MIC): 1.6 µg/mL; MBC ([6]; read-out: MBC): 1.25 µg/mL; MIC ([6]; read-out: MIC): 6.3 µg/mL; MBC ([7]; read-out: MBC): 6.3 µg/mL; MIC ([7]; read-out: MIC): 6.3 µg/mL
1000,1000,1000,> 1000,> 1000,250,"COc1ccc(-c2cc(=O)c3c(O)cc(O)cc3o2)cc1 [compound 1, acacetin]",1000,,> 1000,> 1000,> 1000,500,MIC [8]: 250 µg/mL; MBC [3]: > 1000 µg/mL; DPPH scavenging IC50 [9]: 2.39 µg/mL; IC50 [10]: 9.46 µM; IC50 at 48 h [1]: 35.4 µg/mL
500,,1000,> 1000,> 1000,500,"C=C1C(=O)OC2C1C(OC(C)=O)CC(=C)C1(O)C=CC(C)(O)C21 (stereo not drawn) [compound 2, 12α,4α-dihydroxybishopsolicepolide]",1000,1,> 1000,> 1000,> 1000,500,MIC ([4]; read-out: MIC): > 1 µg/mL
